From patent publication US7129036B1, “Reporter molecules and methods for assaying the lipidations status of a cell” (Tibotec BVBA, priority 1999, dated 2006)
Entries after “also recorded” stand apart in the source; their conditions may differ.

Experiments:
Type in all cases: cell-based
farnesyl transferase = target: T1, farnesyl transferase (Homo sapiens, UniProt P49354+P49356); assay: Farnesyl transferase inhibition assay (EGFP-RasF membrane localization by fluorescence microscopy)
T1 construct: endogenous in cells; host or cells: K562 cells transduced with LNC-EGFP-RasF reporter
Experimental: The idea was to target EGFP to the plasma membrane by using a farnesylation signal sequence. […] The last 20 amino acids of c-Ha-Ras provides farnesylation and palmitoylation for targeting the Ras protein to the plasma membrane. We fused the C-terminal membrane targeting signal sequence of the human c-Ha-ras1 (J00277, NCBI) to the C-terminal end of EGFP (Clontech).
Twenty amino acids of the C-terminal end of c-Ha-ras 1 located in exon 4 were added to the C-terminus of the EGFP coding sequence by polymerase chain reaction (PCR) cloning.
The amphotropic packaging cell line PT67 (Clontech) was transfected (Pfx-2, Invitrogen) with pLNC-EGFP-(DEVD)-RasF and selected in 400 μg/ml G418. […] Gene transfer referred to as transduction in K562 and MT4 cells was easily observed by fluorescence microscopy.
(§1) K562 (MT4) cells were separated from PT67-pLNC-EGFP-(DEVD)-RasF and Non transduced K562 (MT4) cells were removed by selection in 400 μg/ml G418. The remaining fluorescent K562 (MT4) cells were directly cloned in 96 well plates by fluorescence activated cell sorting using an automatic cell deposit unit. […] Two weeks later, appropriate clones were selected by visual inspection using a fluorescence microscope and designated K562-LNC-EGFP-RasF or MT4-LNC-EGFP-(DEVD)-RasF. […]
In cells expressing EGFP without a farnesylation signal sequence, fluorescence is observed throughout the cell. […]

caspase 3 = assay: Caspase 3 activity with fluorogenic Ac-DEVD-AMC substrate; settings: MT4 cells, Ac(N-acetyl)-DEVD-AMC substrate, results not shown
MT4-LNC-EGFP-RasF cells = assay: Control without DEVD cleavage site (EGFP-RasF membrane targeting by fluorescence microscopy); settings: 4 h, FIG. 4B
Experimental: The amphotropic packaging cell line PT67 (Clontech) was transfected (Pfx-2, Invitrogen) with pLNC-EGFP-(DEVD)-RasF and selected in 400 μg/ml G418. In the surviving colonies, transcription occurs from (a) stably integrated plasmid(s) pLNC-EGFP-(DEVD)RasF. The resulting LNC-EGFP-(DEVD)-RasF mRNA is translated into EGFP-(DEVD)-RasF and the neomycin resistance protein and is also packaged into replication incompetent virions. Thus, the PT67-pLNC-EGFP-(DEVD)-RasF constitutively produces viral particles, able to transmit the EGFP-(DEVD)-RasF and the neomycin resistance gene at the same time. These amphotropic virions give the flexibility to rapidly develop novel cell lines stably expressing EGFP-(DEVD)-RasF proteins. […] Gene transfer referred to as transduction in K562 and MT4 cells was easily observed by fluorescence microscopy.
as §1

[1] = test system: caspase 3 and/or caspase 7; assay: Caspase assay (EGFP-DEVD-RasF membrane targeting by fluorescence microscopy); settings: MT4-LNC-EGFP-DEVD-RasF cells, 10 μM, 4 h, FIG. 3B
Experimental: For the apoptosis construct, the same primer was used except that a sequence encoding DEVD (i.e. caspase 3 and 7 cleavage site) was included between EGFP and the Ras plasmamembrane targeting signal sequence (SEQ ID NO 4 and SEQ ID NO 5).
The amphotropic packaging cell line PT67 (Clontech) was transfected (Pfx-2, Invitrogen) with pLNC-EGFP-(DEVD)-RasF and selected in 400 μg/ml G418. In the surviving colonies, transcription occurs from (a) stably integrated plasmid(s) pLNC-EGFP-(DEVD)RasF. The resulting LNC-EGFP-(DEVD)-RasF mRNA is translated into EGFP-(DEVD)-RasF and the neomycin resistance protein and is also packaged into replication incompetent virions. […] Gene transfer referred to as transduction in K562 and MT4 cells was easily observed by fluorescence microscopy.
as §1

SMILES	EGFP membrane localization (farnesyl transferase; K562 LNC-EGFP-RasF cells, 5 μM, FIG. 2)	EGFP compartmentalisation (farnesyl transferase; K562 cells, high enough concentrations (>5 μM))	caspase 3 activity (caspase 3)	translocation of EGFP (MT4-LNC-EGFP-RasF cells; MT4-LNC-EGFP-RasF cells lacking DEVD site)	cell morphology (MT4-LNC-EGFP-RasF cells; MT4-LNC-EGFP-RasF cells)	EGFP membrane targeting [1]
CSCC[C@H](NC(=O)c1ccc(NC[C@@H](N)CS)cc1-c1ccccc1)C(=O)O [FTI-276]	disruption of membrane localization	almost completely disappears	–	–	–	–
CN[C@@H]1C[C@H]2O[C@@](C)([C@@H]1OC)n1c3ccccc3c3c4c(c5c6ccccc6n2c5c31)C(=O)NC4 [staurosporin]	–	–	induced caspase 3 activity	no prominent translocation of EGFP occurs; also recorded: did not result in marked translocation of EGFP	affects the cells morphology within hours; also recorded: altered cell morphology	partially disappears; also recorded: reduced EGFP membrane targeting
